The values below come from US10538555B2, “Macrocyclic inhibitors of the PD-1/PD-L1 and CD80(B7-1)/PD-L1 protein/protein interactions” (BRISTOL-MYERS SQUIBB COMPANY, priority 2014, dated 2020).

The assay has as its target T1, Human PD-L1/PD-1 (Homo sapiens, UniProt Q9NZQ7).
T1 construct: TVMV protease cleavage site (C); made in house; host or cells: HEK293T cells
Kind of assay: HTRF Human PD-L1/PD-1 binding assay (PD-1-Ig/PD-L1-His). The note with it: PD-L1-His 10 nM, PD-1-Ig 20 nM; class symbol; read-out: HTRF Human PD-L1/PD-1 Binding Assay IC50 Range. A digest of the protocol:
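Step 1: compound with PD-L1-His (10 nM final), 15 min. Step 2: PD-1-Ig (20 nM final), 15 min. Step 3: Eu-cryptate anti-Ig (1 nM) plus APC anti-His (20 nM), 30 min equilibration. Signal taken as 665 nm/620 nm ratio.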

*1 amine or outer side, *2 acyl side, *3 side chain or, on linkers, in order; H or OH if unused. Where a SMILES comes first, the peptide text is derived from it. Bridges are numbered along the chain shown (N, C = ends). [ ]: non-standard residue; d: D form. Trp(1-CH2COOH) = N[C@@H](Cc1cn(CC(=O)O)c2ccccc12)C(=O)O; X8 = O=C([C@H](CC1CNc2ccccc21)N[*:1])[*:2]; Hyp = O=C(O)[C@@H]1C[C@@H](O)CN1; NMeNle = CCCC[C@H](NC)C(=O)O; NMeA = CN[C@@H](C)C(=O)O; Dab = NCC[C@H](N)C(=O)O; Dap = NC[C@H](N)C(=O)O

T1 sequence (Q9NZQ7 with tags, fused parts or gaps): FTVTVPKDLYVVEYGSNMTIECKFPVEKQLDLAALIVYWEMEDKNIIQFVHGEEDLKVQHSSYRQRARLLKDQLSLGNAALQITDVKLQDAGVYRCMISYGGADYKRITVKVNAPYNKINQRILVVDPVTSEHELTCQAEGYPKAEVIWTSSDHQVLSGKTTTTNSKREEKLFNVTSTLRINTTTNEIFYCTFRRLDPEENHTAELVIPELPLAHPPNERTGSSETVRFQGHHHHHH

Take `CCCC[C@H]1C(=O)N(C)[C@@H](CCCC)C(=O)N[C@@H](CCC(=O)O)C(=O)N[C@H](C(=O)NCC(N)=O)CSCC(=O)N[C@@H](Cc2ccc(O)cc2)C(=O)N(C)[C@@H](C)C(=O)N[C@@H](CC(=O)O)C(=O)N2CCC[C@H]2C(=O)N[C@@H](CN)C(=O)N[C@@H](CCC(=O)O)C(=O)N2C[C@H](O)C[C@H]2C(=O)N[C@@H](Cc2c[nH]c3ccccc23)C(=O)N[C@@H](CO)C(=O)N[C@@H](Cc2c[nH]c3ccccc23)C(=O)N1C` [Example 5170] ({CH2CO}-Y[NMeA]DP[Dap]E[Hyp]WSW[NMeNle][NMeNle]ECG-NH2; thioether N-14): the IC50 fell in the range of 1 to 9.9 nM. In the case of `CCCC[C@H]1C(=O)N(C)[C@@H](CCCC)C(=O)N[C@@H](CC(C)C)C(=O)N[C@H](C(=O)NCC(N)=O)CSCC(=O)N[C@@H](Cc2ccc(O)cc2)C(=O)N(C)[C@@H](C)C(=O)N[C@@H](CC(=O)O)C(=O)N2CCC[C@H]2C(=O)N[C@@H](CN)C(=O)N[C@@H](CC(C)C)C(=O)N2C[C@H](O)C[C@H]2C(=O)N[C@@H](Cc2c[nH]c3ccccc23)C(=O)N[C@@H](CCN)C(=O)N[C@@H](Cc2cn(CC(=O)O)c3ccccc23)C(=O)N1C` [Example 5171] ({CH2CO}-Y[NMeA]DP[Dap]L[Hyp]W[Dab][Trp(1-CH2COOH)][NMeNle][NMeNle]LCG-NH2; thioether N-14) it was 1 to 9.9 nM; in that of `CCCC[C@H]1C(=O)N(C)[C@@H](CCCC)C(=O)NCC(=O)N[C@H](C(=O)NCC(N)=O)CSCC(=O)N[C@@H](Cc2ccc(O)cc2)C(=O)N(C)[C@@H](C)C(=O)N[C@@H](CC(N)=O)C(=O)N2CCC[C@H]2C(=O)NCC(=O)N[C@@H](CCC(N)=O)C(=O)N2C[C@H](O)C[C@H]2C(=O)N[C@@H](Cc2c[nH]c3ccccc23)C(=O)N[C@@H](CO)C(=O)N[C@@H](Cc2c[nH]c3ccccc23)C(=O)N1C` [Example 5175] ({CH2CO}-Y[NMeA]NPGQ[Hyp]WSW[NMeNle][NMeNle]GCG-NH2; thioether N-14), 1 to 9.9 nM; in that of `CCCC[C@H]1C(=O)N(C)[C@@H](CCCC)C(=O)N[C@@H](CN)C(=O)N[C@H](C(=O)NCC(N)=O)CSCC(=O)N[C@@H](Cc2ccc(O)cc2)C(=O)N(C)[C@@H](C)C(=O)N[C@@H](CC(=O)O)C(=O)N2CCC[C@H]2C(=O)N[C@@H](CN)C(=O)N[C@@H](CCC(=O)O)C(=O)N2C[C@H](O)C[C@H]2C(=O)N[C@@H](Cc2c[nH]c3ccccc23)C(=O)N[C@@H](CCN)C(=O)N[C@@H](Cc2cn(CC(=O)O)c3ccccc23)C(=O)N1C` [Example 5176] ({CH2CO}-Y[NMeA]DP[Dap]E[Hyp]W[Dab][Trp(1-CH2COOH)][NMeNle][NMeNle][Dap]CG-NH2; thioether N-14), 1 to 9.9 nM. As for `CCCC[C@H]1C(=O)N(C)[C@@H](CCCC)C(=O)N[C@@H](CCC(=O)O)C(=O)N[C@H](C(=O)NCC(N)=O)CSCC(=O)N[C@@H](Cc2ccc(O)cc2)C(=O)N(C)[C@@H](C)C(=O)N[C@@H](CC(=O)O)C(=O)N2CCC[C@H]2C(=O)N[C@@H](CO)C(=O)N[C@@H](CCC(N)=O)C(=O)N2C[C@H](O)C[C@H]2C(=O)N[C@@H](Cc2c[nH]c3ccccc23)C(=O)N[C@@H](CCC(=O)O)C(=O)N[C@@H](Cc2c[nH]c3ccccc23)C(=O)N1C` [Example 5177] ({CH2CO}-Y[NMeA]DPSQ[Hyp]WEW[NMeNle][NMeNle]ECG-NH2; thioether N-14), the IC50 was in the range of 10 to 99.9 nM. `CCCC[C@H]1C(=O)N(C)[C@@H](CCCC)C(=O)N[C@@H](CCCNC(=N)N)C(=O)N[C@H](C(=O)NCC(N)=O)CSCC(=O)N[C@@H](Cc2ccc(O)cc2)C(=O)N(C)[C@@H](C)C(=O)N[C@@H](CO)C(=O)N2CCC[C@H]2C(=O)N[C@@H](Cc2cnc[nH]2)C(=O)N[C@@H](CCC(N)=O)C(=O)N2C[C@H](O)C[C@H]2C(=O)N[C@@H](Cc2c[nH]c3ccccc23)C(=O)N[C@@H](CO)C(=O)N[C@@H](Cc2c[nH]c3ccccc23)C(=O)N1C` [Example 5178] ({CH2CO}-Y[NMeA]SPHQ[Hyp]WSW[NMeNle][NMeNle]RCG-NH2; thioether N-14): the IC50 fell in the range of 1 to 9.9 nM.

On to `CCCC[C@H]1C(=O)N(C)[C@@H](CCCC)C(=O)N[C@@H](CCC(=O)O)C(=O)N[C@H](C(=O)NCC(N)=O)CSCC(=O)N[C@@H](Cc2ccc(O)cc2)C(=O)N(C)[C@@H](C)C(=O)N[C@@H](CC(=O)O)C(=O)N2CCC[C@H]2C(=O)N[C@@H](CO)C(=O)N[C@@H](CC(C)C)C(=O)N2C[C@H](O)C[C@H]2C(=O)N[C@@H](Cc2c[nH]c3ccccc23)C(=O)N[C@@H](CCN)C(=O)N[C@@H](Cc2c[nH]c3ccccc23)C(=O)N1C` [Example 5179] ({CH2CO}-Y[NMeA]DPSL[Hyp]W[Dab]W[NMeNle][NMeNle]ECG-NH2; thioether N-14), for which the IC50 was 1 to 9.9 nM. Take `CCCC[C@H]1C(=O)N(C)[C@@H](CCCC)C(=O)N[C@@H](CC(C)C)C(=O)N[C@H](C(=O)NCC(N)=O)CSCC(=O)N[C@@H](Cc2ccc(O)cc2)C(=O)N(C)[C@@H](C)C(=O)N[C@@H](CC(=O)O)C(=O)N2CCC[C@H]2C(=O)N[C@@H](CN)C(=O)N[C@@H](CCC(=O)O)C(=O)N2C[C@H](O)C[C@H]2C(=O)N[C@@H](Cc2c[nH]c3ccccc23)C(=O)N[C@@H](CCN)C(=O)N[C@@H](Cc2cn(CC(=O)O)c3ccccc23)C(=O)N1C` [Example 5180] ({CH2CO}-Y[NMeA]DP[Dap]E[Hyp]W[Dab][Trp(1-CH2COOH)][NMeNle][NMeNle]LCG-NH2; thioether N-14): the IC50 lay within 1 to 9.9 nM. In the case of `CCCC[C@H]1C(=O)N(C)[C@@H](CCCC)C(=O)N[C@@H](CC(=O)O)C(=O)N[C@H](C(=O)NCC(N)=O)CSCC(=O)N[C@@H](Cc2ccc(O)cc2)C(=O)N(C)[C@@H](C)C(=O)N[C@@H](CC(N)=O)C(=O)N2CCC[C@H]2C(=O)N[C@@H](Cc2c[nH]cn2)C(=O)N[C@@H](CCC(=O)O)C(=O)N2C[C@H](O)C[C@H]2C(=O)N[C@@H](Cc2c[nH]c3ccccc23)C(=O)N[C@@H](CCN)C(=O)N[C@@H](Cc2cn(CC(=O)O)c3ccccc23)C(=O)N1C` [Example 5181] ({CH2CO}-Y[NMeA]NPHE[Hyp]W[Dab][Trp(1-CH2COOH)][NMeNle][NMeNle]DCG-NH2; thioether N-14) it was 10 to 99.9 nM. Take `CCCC[C@H]1C(=O)N(C)[C@@H](CCCC)C(=O)N[C@@H](CN)C(=O)N[C@H](C(=O)NCC(N)=O)CSCC(=O)N[C@@H](Cc2ccc(O)cc2)C(=O)N(C)[C@@H](C)C(=O)N[C@@H](CC(N)=O)C(=O)N2CCC[C@H]2C(=O)N[C@@H](Cc2c[nH]cn2)C(=O)N[C@@H](CC(C)C)C(=O)N2CCC[C@H]2C(=O)N[C@@H](Cc2c[nH]c3ccccc23)C(=O)N[C@@H](CO)C(=O)N[C@@H](Cc2c[nH]c3ccccc23)C(=O)N1C` [Example 5182]: the IC50 was 10 to 99.9 nM. For `CCCC[C@H]1C(=O)N(C)[C@@H](CCCC)C(=O)N[C@@H](CC(C)C)C(=O)N[C@H](C(=O)NCC(N)=O)CSCC(=O)N[C@@H](Cc2ccc(O)cc2)C(=O)N(C)[C@@H](C)C(=O)N[C@@H](CC(N)=O)C(=O)N2CCC[C@H]2C(=O)NCC(=O)N[C@@H](CCC(N)=O)C(=O)N2C[C@H](O)C[C@H]2C(=O)N[C@@H](Cc2c[nH]c3ccccc23)C(=O)NCC(=O)N[C@@H](Cc2c[nH]c3ccccc23)C(=O)N1C` [Example 5183] ({CH2CO}-Y[NMeA]NPGQ[Hyp]WGW[NMeNle][NMeNle]LCG-NH2; thioether N-14), the IC50 was in the range of 10 to 99.9 nM. In the case of `CCCC[C@H]1C(=O)N(C)[C@@H](CCCC)C(=O)N[C@@H](CCC(=O)O)C(=O)N[C@H](C(=O)NCC(N)=O)CSCC(=O)N[C@@H](Cc2ccc(O)cc2)C(=O)N(C)[C@@H](C)C(=O)N[C@@H](CC(=O)O)C(=O)N2CCC[C@H]2C(=O)N[C@@H](CO)C(=O)N[C@@H](CC(C)C)C(=O)N2C[C@H](O)C[C@H]2C(=O)N[C@@H](Cc2c[nH]c3ccccc23)C(=O)N[C@@H](CO)C(=O)N[C@@H](CC2CNc3ccccc32)C(=O)N1C` (stereo partly drawn) [Example 5184] ({CH2CO}-Y[NMeA]DPSL[Hyp]WS[X8][NMeNle][NMeNle]ECG-NH2; thioether N-14), the IC50 fell in the range of 10 to 99.9 nM. On to `CCCC[C@H]1C(=O)N(C)[C@@H](CCCC)C(=O)N[C@@H](CCC(=O)O)C(=O)N[C@H](C(=O)NCC(N)=O)CSCC(=O)N[C@@H](Cc2ccc(O)cc2)C(=O)N(C)[C@@H](C)C(=O)N[C@@H](CC(N)=O)C(=O)N2CCC[C@H]2C(=O)N[C@@H](Cc2cnc[nH]2)C(=O)N[C@@H](CCC(N)=O)C(=O)N2C[C@H](O)C[C@H]2C(=O)N[C@@H](Cc2c[nH]c3ccccc23)C(=O)N[C@@H](CCC(=O)O)C(=O)N[C@@H](Cc2c[nH]c3ccccc23)C(=O)N1C` [Example 5186] ({CH2CO}-Y[NMeA]NPHQ[Hyp]WEW[NMeNle][NMeNle]ECG-NH2; thioether N-14), for which the IC50 lay within 1 to 9.9 nM.

Take `CCCC[C@H]1C(=O)N(C)[C@@H](CCCC)C(=O)N[C@@H](CCC(=O)O)C(=O)N[C@H](C(=O)NCC(N)=O)CSCC(=O)N[C@@H](Cc2ccc(O)cc2)C(=O)N(C)[C@@H](C)C(=O)N[C@@H](CC(N)=O)C(=O)N2CCC[C@H]2C(=O)N[C@@H](Cc2c[nH]cn2)C(=O)N[C@@H](CCC(=O)O)C(=O)N2C[C@H](O)C[C@H]2C(=O)N[C@@H](Cc2c[nH]c3ccccc23)C(=O)N[C@@H](CCN)C(=O)N[C@@H](Cc2c[nH]c3ccccc23)C(=O)N1C` [Example 5190] ({CH2CO}-Y[NMeA]NPHE[Hyp]W[Dab]W[NMeNle][NMeNle]ECG-NH2; thioether N-14): the IC50 fell in the range of 1 to 9.9 nM. Take `CCCC[C@H]1C(=O)N(C)[C@@H](CCCC)C(=O)N[C@@H](CCC(=O)O)C(=O)N[C@H](C(=O)NCC(N)=O)CSCC(=O)N[C@@H](Cc2ccc(O)cc2)C(=O)N(C)[C@@H](C)C(=O)N[C@@H](CC(N)=O)C(=O)N2CCC[C@H]2C(=O)N[C@@H](CN)C(=O)N[C@@H](CCC(N)=O)C(=O)N2C[C@H](O)C[C@H]2C(=O)N[C@@H](Cc2c[nH]c3ccccc23)C(=O)N[C@@H](CCC(=O)O)C(=O)N[C@@H](Cc2c[nH]c3ccccc23)C(=O)N1C` [Example 5191] ({CH2CO}-Y[NMeA]NP[Dap]Q[Hyp]WEW[NMeNle][NMeNle]ECG-NH2; thioether N-14): the IC50 fell in the range of 1 to 9.9 nM.
